{
  "source": "patent US20220112479A1",
  "about": "“COMPOUNDS STABILIZING AMYLASES IN LIQUIDS” (BASF SE, priority 2018, published 2022)",
  "type_in_all_cases": "biochemical",
  "key": {"[1]": {"test_system": "Amy3=Stainzyme Plus L (12L)", "test": "amylase storage stability in liquid formulation (pNP release from Ethyliden-blocked-pNPG7)", "conditions": "base formulation II., 1.5 wt % component (a), storage at 37° C.", "in_short": "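Liquid formulations with amylase (as active protein) stored at 37 °C and sampled at intervals. Activity measured as pNP release (405 nm) from ethylidene-blocked pNPG7 with excess α-glucosidase, Termamyl standard; expressed relative to reference formulation at time 0.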"}, "Savinase Ultra 16.0L": {"target": "T1, Savinase Ultra 16.0L (Lederbergia lenta, UniProt P29600)", "T1 construct": "purchased Sigma-Aldrich", "T1 sequence (P29600 1-269)": "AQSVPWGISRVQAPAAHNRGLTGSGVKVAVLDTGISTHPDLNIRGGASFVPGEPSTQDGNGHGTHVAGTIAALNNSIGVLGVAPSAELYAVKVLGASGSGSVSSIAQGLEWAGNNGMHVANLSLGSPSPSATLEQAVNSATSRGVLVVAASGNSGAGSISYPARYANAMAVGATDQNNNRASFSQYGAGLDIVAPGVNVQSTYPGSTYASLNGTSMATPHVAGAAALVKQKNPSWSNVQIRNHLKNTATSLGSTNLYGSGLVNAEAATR", "test": "protease storage stability in liquid formulation (Suc-AAPF-pNA substrate)", "conditions": "storage at 37° C.", "in_short": "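Savinase in liquid base formulations containing test salt, comparative compound or diethylene glycol; amounts given as active protein. Residual activity at set storage times measured with Suc-AAPF-pNA via pNA release at OD405, 20 °C. Activity expressed relative to reference formulation at time 0.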"}, "Amylase": {"test_system": "Amylase", "test": "amylase storage stability in liquid laundry formulation (pNP release from Ethyliden-blocked-pNPG7)", "parameters": "key: % of activity in reference formulation at time 0", "conditions": "laundry base formulation VII. (2.0 EDTA), 2.5 wt % component (a), storage at 37° C.", "in_short": "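Amylase stored in liquid laundry base formulations at 37° C, activity sampled over time. Activity measured as pNP release (A405) from ethylidene-blocked pNPG7 with excess α-glucosidase; values expressed relative to the reference formulation at time 0.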"}},
  "data": [
    {"substance": "Diethylcitrate [A.7]", "values": [
      {"measurement": "amylase activity, referring to reference formulation at time 0", "setting": "[1]; 3 d", "value": 94},
      {"measurement": "amylase activity, referring to reference formulation at time 0", "setting": "[1]; 7 d", "value": 86},
      {"measurement": "amylase activity, referring to reference formulation at time 0", "setting": "[1]; 14 d", "value": 82},
      {"measurement": "amylase activity, referring to reference formulation at time 0", "setting": "[1]; 21 d", "value": 72},
      {"measurement": "amylase activity, referring to reference formulation at time 0", "setting": "[1]; 28 d", "value": 64},
      {"measurement": "amylase activity, referring to reference formulation at time 0", "setting": "[1]; 42 d", "value": 53},
      {"measurement": "amylase activity, referring to reference formulation at time 0", "setting": "[1]; T0", "value": 99},
      {"measurement": "protease activity, referring to reference formulation at time 0", "setting": "Savinase Ultra 16.0L; base formulation I., 1.5 wt % component (a), 3 d", "value": 94},
      {"measurement": "protease activity, referring to reference formulation at time 0", "setting": "Savinase Ultra 16.0L; base formulation I., 1.5 wt % component (a), 7 d", "value": 91},
      {"measurement": "protease activity, referring to reference formulation at time 0", "setting": "Savinase Ultra 16.0L; base formulation I., 1.5 wt % component (a), 14 d", "value": 85},
      {"measurement": "protease activity, referring to reference formulation at time 0", "setting": "Savinase Ultra 16.0L; base formulation I., 1.5 wt % component (a), 21 d", "value": 81},
      {"measurement": "protease activity, referring to reference formulation at time 0", "setting": "Savinase Ultra 16.0L; base formulation I., 1.5 wt % component (a), 28 d", "value": 76},
      {"measurement": "protease activity, referring to reference formulation at time 0", "setting": "Savinase Ultra 16.0L; base formulation I., 1.5 wt % component (a), 42 d", "value": 63},
      {"measurement": "protease activity, referring to reference formulation at time 0", "setting": "Savinase Ultra 16.0L; base formulation I., 1.5 wt % component (a), T0", "value": 100},
      {"measurement": "protease activity, referring to reference formulation at time 0", "setting": "Savinase Ultra 16.0L; base formulation II., 1.5 wt % component (a), 3 d", "value": 98},
      {"measurement": "protease activity, referring to reference formulation at time 0", "setting": "Savinase Ultra 16.0L; base formulation II., 1.5 wt % component (a), 7 d", "value": 93},
      {"measurement": "protease activity, referring to reference formulation at time 0", "setting": "Savinase Ultra 16.0L; base formulation II., 1.5 wt % component (a), 14 d", "value": 88},
      {"measurement": "protease activity, referring to reference formulation at time 0", "setting": "Savinase Ultra 16.0L; base formulation II., 1.5 wt % component (a), 21 d", "value": 85},
      {"measurement": "protease activity, referring to reference formulation at time 0", "setting": "Savinase Ultra 16.0L; base formulation II., 1.5 wt % component (a), 28 d", "value": 80},
      {"measurement": "protease activity, referring to reference formulation at time 0", "setting": "Savinase Ultra 16.0L; base formulation II., 1.5 wt % component (a), 42 d", "value": 71},
      {"measurement": "protease activity, referring to reference formulation at time 0", "setting": "Savinase Ultra 16.0L; base formulation II., 1.5 wt % component (a), T0", "value": 100},
      {"measurement": "protease activity, referring to reference formulation at time 0", "setting": "Savinase Ultra 16.0L; base formulation III., 1.5 wt % component (a), 3 d", "value": 97},
      {"measurement": "protease activity, referring to reference formulation at time 0", "setting": "Savinase Ultra 16.0L; base formulation III., 1.5 wt % component (a), 7 d", "value": 95},
      {"measurement": "protease activity, referring to reference formulation at time 0", "setting": "Savinase Ultra 16.0L; base formulation III., 1.5 wt % component (a), 14 d", "value": 92},
      {"measurement": "protease activity, referring to reference formulation at time 0", "setting": "Savinase Ultra 16.0L; base formulation III., 1.5 wt % component (a), 21 d", "value": 87},
      {"measurement": "protease activity, referring to reference formulation at time 0", "setting": "Savinase Ultra 16.0L; base formulation III., 1.5 wt % component (a), 28 d", "value": 74},
      {"measurement": "protease activity, referring to reference formulation at time 0", "setting": "Savinase Ultra 16.0L; base formulation III., 1.5 wt % component (a), 42 d", "value": 64},
      {"measurement": "protease activity, referring to reference formulation at time 0", "setting": "Savinase Ultra 16.0L; base formulation III., 1.5 wt % component (a), T0", "value": 100},
      {"measurement": "protease activity, referring to reference formulation at time 0", "setting": "Savinase Ultra 16.0L; base formulation IV., 2.0 wt % component (a), 3 d", "value": 96},
      {"measurement": "protease activity, referring to reference formulation at time 0", "setting": "Savinase Ultra 16.0L; base formulation IV., 2.0 wt % component (a), 7 d", "value": 88},
      {"measurement": "protease activity, referring to reference formulation at time 0", "setting": "Savinase Ultra 16.0L; base formulation IV., 2.0 wt % component (a), 14 d", "value": 79},
      {"measurement": "protease activity, referring to reference formulation at time 0", "setting": "Savinase Ultra 16.0L; base formulation IV., 2.0 wt % component (a), 21 d", "value": 74},
      {"measurement": "protease activity, referring to reference formulation at time 0", "setting": "Savinase Ultra 16.0L; base formulation IV., 2.0 wt % component (a), 28 d", "value": 68},
      {"measurement": "protease activity, referring to reference formulation at time 0", "setting": "Savinase Ultra 16.0L; base formulation IV., 2.0 wt % component (a), 42 d", "value": 62},
      {"measurement": "protease activity, referring to reference formulation at time 0", "setting": "Savinase Ultra 16.0L; base formulation IV., 2.0 wt % component (a), T0", "value": 98},
      {"measurement": "protease activity, referring to reference formulation at time 0", "setting": "Savinase Ultra 16.0L; base formulation V., 2.0 wt % component (a), 3 d", "value": 93},
      {"measurement": "protease activity, referring to reference formulation at time 0", "setting": "Savinase Ultra 16.0L; base formulation V., 2.0 wt % component (a), 7 d", "value": 88},
      {"measurement": "protease activity, referring to reference formulation at time 0", "setting": "Savinase Ultra 16.0L; base formulation V., 2.0 wt % component (a), 14 d", "value": 79},
      {"measurement": "protease activity, referring to reference formulation at time 0", "setting": "Savinase Ultra 16.0L; base formulation V., 2.0 wt % component (a), 21 d", "value": 72},
      {"measurement": "protease activity, referring to reference formulation at time 0", "setting": "Savinase Ultra 16.0L; base formulation V., 2.0 wt % component (a), 28 d", "value": 66},
      {"measurement": "protease activity, referring to reference formulation at time 0", "setting": "Savinase Ultra 16.0L; base formulation V., 2.0 wt % component (a), 42 d", "value": 54},
      {"measurement": "protease activity, referring to reference formulation at time 0", "setting": "Savinase Ultra 16.0L; base formulation V., 2.0 wt % component (a), T0", "value": 97},
      {"measurement": "amylase activity, referring to reference formulation at time 0", "setting": "Amylase; 3 d", "value": 90},
      {"measurement": "amylase activity, referring to reference formulation at time 0", "setting": "Amylase; 7 d", "value": 82},
      {"measurement": "amylase activity, referring to reference formulation at time 0", "setting": "Amylase; 14 d", "value": 69},
      {"measurement": "amylase activity, referring to reference formulation at time 0", "setting": "Amylase; 21 d", "value": 62},
      {"measurement": "amylase activity, referring to reference formulation at time 0", "setting": "Amylase; 28 d", "value": 56},
      {"measurement": "amylase activity, referring to reference formulation at time 0", "setting": "Amylase; T0", "value": 99}
    ]}
  ]
}
